ChEMBL document CHEMBL1201862, “PubChem BioAssay data set” (2004)
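Protocol summary: plate cells (96-well), add compound at 5 concentrations, incubate 48 h, interpolate endpoints linearly. At the GI50, growth is halved.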 The source made the active and inactive calls. Cut-off read from the data, not from the text of the source: active = GI50 up to about 1.1 µM and inactive = higher.

Columns and labels:
Assay in all cases: NCI tumour cell line growth inhibition, 48 h
[1] = system: 786-0
[2] = system: ACHN
[3] = system: CAKI-1
[4] = system: CCRF-CEM
[5] = system: K562
[6] = system: LOX IMVI
[7] = system: LXFL 529
[8] = system: M14
[9] = system: NCI-H522
[10] = system: RPMI-8226
[11] = system: SF-268
[12] = system: SF-295
[13] = system: SK-MEL-28
[14] = system: SK-MEL-2
[15] = system: SK-MEL-5
[16] = system: SK-OV-3
[17] = system: SR
[18] = system: EKVX

Measured: GI50

S=C1CNC(=S)CN1
inactive: [1] > 100 µM | [2] > 100 µM | [3] > 100 µM | [4] > 100 µM | [5] > 100 µM | [6] > 100 µM | [7] > 100 µM | [8] > 100 µM | [9] > 100 µM | [10] > 100 µM | [11] > 100 µM | [12] > 100 µM | [13] > 100 µM | [14] > 100 µM | [15] > 100 µM | [16] > 100 µM | [17] > 100 µM

Cc1ccc(S(=O)(=O)N/N=C/CN2C(=O)c3ccccc3C2=O)cc1
inactive: [1] > 100 µM | [2] > 100 µM | [3] > 100 µM | [4] > 100 µM | [18] > 100 µM | [5] > 100 µM | [6] > 100 µM | [7] > 100 µM | [8] > 100 µM | [9] > 100 µM | [10] > 100 µM | [12] > 100 µM | [14] > 100 µM | [15] > 100 µM | [17] > 100 µM

CNC(=O)C1CCc2nnc(-c3ccccc3)n21 (stereo unspecified)
inactive: [1] > 100 µM | [2] > 100 µM | [3] > 100 µM | [4] > 100 µM | [18] 55.2 µM | [5] > 100 µM | [7] > 100 µM | [8] > 100 µM | [9] > 100 µM | [10] > 100 µM | [11] > 100 µM | [13] > 100 µM | [14] > 100 µM | [15] > 100 µM | [16] > 100 µM | [17] > 100 µM

O=[N+]([O-])c1ccc(Cl)c(C2SCc3nc4ccccc4n32)c1 (stereo unspecified)
inactive: [1] 72.3 µM | [2] 44.9 µM | [3] 20.1 µM | [4] 28 µM | [18] 42.4 µM | [5] 27.7 µM | [7] 34.8 µM | [9] 22.3 µM | [10] 31.2 µM | [11] 29.8 µM | [12] 32.6 µM | [13] 40.6 µM | [14] 50.9 µM | [15] 16.5 µM | [16] 36.6 µM | [17] 32.1 µM

CN(C)CCn1cnc2ncccc2c1=O
inactive: [1] > 100 µM | [2] > 100 µM | [3] > 100 µM | [4] > 100 µM | [18] > 100 µM | [5] > 100 µM | [6] > 100 µM | [7] > 100 µM | [8] > 100 µM | [9] > 100 µM | [11] > 100 µM | [12] > 100 µM | [13] > 100 µM | [14] > 100 µM | [15] > 100 µM | [16] > 100 µM | [17] > 100 µM

CC(=O)Nc1ccc(/C=C/C(=O)c2sc(-c3nc(C)c(C(=O)/C=C/c4ccc(NC(C)=O)cc4)s3)nc2C)cc1
inactive: [1] > 100 µM | [2] > 100 µM | [3] > 100 µM | [4] > 100 µM | [18] > 100 µM | [5] > 100 µM | [6] > 100 µM | [7] > 100 µM | [8] > 100 µM | [9] > 100 µM | [11] > 10 µM | [12] > 100 µM | [13] > 100 µM | [14] > 100 µM | [16] > 100 µM | [17] > 100 µM

Cn1c(=O)n(C2(C)CSC2)c2ccccc21
inactive: [1] > 100 µM | [2] > 100 µM | [3] > 100 µM | [4] > 100 µM | [18] > 100 µM | [5] > 100 µM | [6] > 100 µM | [7] > 100 µM | [8] > 100 µM | [9] > 100 µM | [10] > 100 µM | [11] > 100 µM | [12] > 100 µM | [13] > 100 µM | [15] > 100 µM | [16] > 100 µM | [17] > 100 µM

CC(c1ccc2c(c1)CCC1C2CC2OC23CC=CC(=O)[C@]13C)C1C[C@]2(C)O[C@]2(C)[C@H](O)O1 (stereo partly specified)
inactive: [1] > 100 µM | [2] 33.7 µM | [3] 7.64 µM | [4] 15.4 µM | [18] 5.48 µM | [5] 3.14 µM | [6] 20.1 µM | [7] 10.6 µM | [8] 10.7 µM | [9] 14 µM | [10] 2 µM | [11] 63.4 µM | [13] 50.8 µM | [14] 52.2 µM | [15] 11 µM | [16] > 100 µM | [17] 13.1 µM

Nc1ncn(C2C=C(CO)C(O)C2O)c(=O)n1 (stereo unspecified)
inactive: [1] 63.1 µM | [2] 46.5 µM | [3] 40.7 µM | [18] > 100 µM | [5] 41.6 µM | [7] > 100 µM | [8] > 100 µM | [9] 37.2 µM | [10] 37 µM | [11] 53 µM | [13] > 100 µM | [14] 94.4 µM | [15] > 100 µM | [16] > 100 µM | [17] 26.7 µM
